Results: ChEMBL document CHEMBL1201862, “PubChem BioAssay data set” (2004)
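Growth conditions: 96-well plates. Treatment: test compound, 48 hours, 5 concentrations. Analysis: linear interpolation between bracketing concentrations; unreached endpoints set to highest concentration. Here, GI50 denotes the concentration required for 50% inhibition of growth.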 The source made the active and inactive calls. Rule as the data show it: active = GI50 up to about 1.1 µM and inactive = higher.

How the values were obtained:
Assay in all cases: growth of human tumour cells (NCI), 48 h
786-0 = test system: 786-0
A498 = test system: A498
A549 = test system: A549
EKVX = test system: EKVX
HCT-116 = test system: HCT-116
HOP-62 = test system: HOP-62
HOP-92 = test system: HOP-92
HT-29 = test system: HT-29
IGROV-1 = test system: IGROV-1
NCI-H460 = test system: NCI-H460
NCI-H522 = test system: NCI-H522
SK-MEL-28 = test system: SK-MEL-28
SNB-19 = test system: SNB-19
UO-31 = test system: UO-31
UACC-257 = test system: UACC-257
DU-145 = test system: DU-145
MDA-MB-435 = test system: MDA-MB-435
NCI/ADR-RES = test system: NCI/ADR-RES

SMILES	GI50 (786-0)	GI50 (A498)	GI50 (A549)	GI50 (EKVX)	GI50 (HCT-116)	GI50 (HOP-62)	GI50 (HOP-92)	GI50 (HT-29)	GI50 (IGROV-1)	GI50 (NCI-H460)	GI50 (NCI-H522)	GI50 (SK-MEL-28)	GI50 (SNB-19)	GI50 (UO-31)	GI50 (UACC-257)	GI50 (DU-145)	GI50 (MDA-MB-435)	GI50 (NCI/ADR-RES)
CCOC(=O)C/C(=N\c1cc(C)on1)N(CC)CC.[O-][Cl+3]([O-])([O-])O	> 100 µM (inactive)	> 100 µM (inactive)	> 100 µM (inactive)	> 100 µM (inactive)	> 100 µM (inactive)	> 100 µM (inactive)	> 100 µM (inactive)	> 100 µM (inactive)	> 100 µM (inactive)	> 100 µM (inactive)	> 100 µM (inactive)	> 100 µM (inactive)	> 100 µM (inactive)	> 100 µM (inactive)				
COC(=O)Cc1cc(=O)[nH]c2c1C(=O)CCC2	> 100 µM (inactive)		> 100 µM (inactive)	> 100 µM (inactive)			> 100 µM (inactive)	> 100 µM (inactive)	> 100 µM (inactive)	> 100 µM (inactive)	> 100 µM (inactive)	> 100 µM (inactive)	> 100 µM (inactive)	> 100 µM (inactive)	> 100 µM (inactive)			
NC1CC(=O)c2ccccc21 (stereo not drawn)	> 100 µM (inactive)	> 100 µM (inactive)	> 100 µM (inactive)	> 100 µM (inactive)	> 100 µM (inactive)	> 100 µM (inactive)	> 100 µM (inactive)	> 100 µM (inactive)	> 100 µM (inactive)		> 100 µM (inactive)	> 100 µM (inactive)	> 100 µM (inactive)	> 100 µM (inactive)	> 100 µM (inactive)	> 100 µM (inactive)	> 100 µM (inactive)	> 100 µM (inactive)
O=[N+]([O-])C(=C(Nc1ccccc1)Nc1ccccc1)/C(Cl)=C(\Cl)Br	16.3 µM (inactive)	19.1 µM (inactive)	20.7 µM (inactive)	14.8 µM (inactive)	6.05 µM (inactive)	22 µM (inactive)	17.7 µM (inactive)	16.2 µM (inactive)		21.3 µM (inactive)	2.51 µM (inactive)	13.6 µM (inactive)	> 10 µM (inactive)	10.1 µM (inactive)	14.7 µM (inactive)	16.5 µM (inactive)		9.48 µM (inactive)
Cn1c(=O)c2c(nc3n(Cc4ccccc4)c(=O)c(NCCCBr)cn23)n(C)c1=O	23.9 µM (inactive)	> 100 µM (inactive)	> 100 µM (inactive)	43.6 µM (inactive)	54 µM (inactive)	26.5 µM (inactive)	18.1 µM (inactive)	> 100 µM (inactive)	46.7 µM (inactive)	> 100 µM (inactive)	54.3 µM (inactive)	> 100 µM (inactive)	64.4 µM (inactive)	> 100 µM (inactive)	> 100 µM (inactive)	> 100 µM (inactive)	> 100 µM (inactive)	> 100 µM (inactive)
O=[N+]([O-])c1cc2c(cc1O)[nH]c1cccc([N+](=O)[O-])c12	> 100 µM (inactive)		> 100 µM (inactive)		> 100 µM (inactive)	> 100 µM (inactive)		> 100 µM (inactive)		> 100 µM (inactive)	> 100 µM (inactive)	> 100 µM (inactive)	> 100 µM (inactive)	> 100 µM (inactive)	> 100 µM (inactive)			
COc1ccc(/C(Cl)=C/c2ccc(Cl)c(Cl)c2)cc1	32.5 µM (inactive)	24.9 µM (inactive)	22.4 µM (inactive)	20.2 µM (inactive)	22.7 µM (inactive)	27.5 µM (inactive)	30.1 µM (inactive)	18.3 µM (inactive)	38.1 µM (inactive)		16.3 µM (inactive)	38.2 µM (inactive)	63.4 µM (inactive)	26.5 µM (inactive)	24.3 µM (inactive)			
c1ccc(-c2nnc(CCCCCCCCc3nnc(-c4ccccc4)o3)o2)cc1	74 µM (inactive)	16.1 µM (inactive)	32 µM (inactive)	> 100 µM (inactive)	55.6 µM (inactive)	97.3 µM (inactive)	50.9 µM (inactive)	45.1 µM (inactive)	66.5 µM (inactive)	50.5 µM (inactive)	25.9 µM (inactive)	> 100 µM (inactive)	> 100 µM (inactive)	> 100 µM (inactive)	42.2 µM (inactive)	> 100 µM (inactive)	> 100 µM (inactive)	> 100 µM (inactive)
CC1(SCC(N)C(=O)O)CC(=O)NC1=O (stereo not drawn)	> 100 µM (inactive)	0.42 µM (active)	> 100 µM (inactive)	> 100 µM (inactive)	> 100 µM (inactive)	> 100 µM (inactive)	> 100 µM (inactive)	> 100 µM (inactive)	> 100 µM (inactive)	> 100 µM (inactive)	> 100 µM (inactive)	> 100 µM (inactive)	> 100 µM (inactive)	> 100 µM (inactive)	> 100 µM (inactive)			
Cc1c(-c2ccc(O)c(O)c2)oc(=O)c2c(O)cccc12	9.73 µM (inactive)	15 µM (inactive)	7.93 µM (inactive)	8.87 µM (inactive)	6.56 µM (inactive)	10.7 µM (inactive)	16.3 µM (inactive)		5.82 µM (inactive)	11.6 µM (inactive)	2.95 µM (inactive)		6.3 µM (inactive)	11.1 µM (inactive)	15.7 µM (inactive)	14.4 µM (inactive)	3.17 µM (inactive)	10.5 µM (inactive)
C=C(c1ccc2[nH]c(NC(=O)OC)nc2c1)c1cccs1	0.155 µM (active)	0.425 µM (active)	0.16 µM (active)	9.46 µM (inactive)	0.0675 µM (active)	0.206 µM (active)	0.975 µM (active)	0.0568 µM (active)	0.371 µM (active)	0.118 µM (active)	0.0813 µM (active)	3.47 µM (inactive)	0.198 µM (active)	0.916 µM (active)	0.556 µM (active)	0.309 µM (active)	0.0259 µM (active)	0.0488 µM (active)
N#Cc1c(-c2ccc([N+](=O)[O-])cc2)cc(-c2ccc(Nc3ccnc4cc(C(F)(F)F)ccc34)cc2)[nH]c1=O	51.9 µM (inactive)	> 100 µM (inactive)	> 100 µM (inactive)	> 100 µM (inactive)	22.2 µM (inactive)	> 100 µM (inactive)		92.9 µM (inactive)	> 100 µM (inactive)	> 100 µM (inactive)	> 100 µM (inactive)	> 100 µM (inactive)	24.4 µM (inactive)	> 100 µM (inactive)	> 100 µM (inactive)	71.3 µM (inactive)	> 100 µM (inactive)	> 100 µM (inactive)
CCNCCNC(=O)c1ccc(Br)cc1	> 100 µM (inactive)	> 100 µM (inactive)	> 100 µM (inactive)	> 100 µM (inactive)			> 100 µM (inactive)	> 100 µM (inactive)	> 100 µM (inactive)	> 100 µM (inactive)		> 100 µM (inactive)	> 100 µM (inactive)	> 100 µM (inactive)				> 100 µM (inactive)
c1ccc2cc(-c3cc4ccccc4s3)ccc2c1	> 100 µM (inactive)	> 100 µM (inactive)	> 100 µM (inactive)	> 100 µM (inactive)	> 100 µM (inactive)	> 100 µM (inactive)	> 100 µM (inactive)	> 100 µM (inactive)	> 100 µM (inactive)	> 100 µM (inactive)	> 100 µM (inactive)	> 100 µM (inactive)	> 100 µM (inactive)	> 100 µM (inactive)	> 100 µM (inactive)			
O=C(CC1(O)C(=O)Nc2ccccc21)c1ccco1 (stereo not drawn)	> 100 µM (inactive)	> 100 µM (inactive)	> 100 µM (inactive)	> 100 µM (inactive)	> 100 µM (inactive)	> 100 µM (inactive)	> 100 µM (inactive)	> 100 µM (inactive)	> 100 µM (inactive)	> 100 µM (inactive)	> 100 µM (inactive)	> 100 µM (inactive)	> 100 µM (inactive)	> 100 µM (inactive)	> 100 µM (inactive)			
CCc1ccccc1NC(=O)C(C#N)C1=C(Cl)C(=O)c2ccccc2C1=O (stereo not drawn)	15.5 µM (inactive)		21.9 µM (inactive)	17.1 µM (inactive)	13 µM (inactive)	19.1 µM (inactive)	29.4 µM (inactive)	14.1 µM (inactive)	12.6 µM (inactive)	19.7 µM (inactive)	13.5 µM (inactive)	16.9 µM (inactive)	25.4 µM (inactive)	13 µM (inactive)	16.4 µM (inactive)	17.4 µM (inactive)	25.6 µM (inactive)	16.7 µM (inactive)
Nc1ccc(/N=N\c2ccc(-c3ccc(O)cc3)cc2)c2ccc(S(=O)(=O)O)cc12	> 100 µM (inactive)	> 100 µM (inactive)	> 100 µM (inactive)	> 100 µM (inactive)	> 100 µM (inactive)	> 100 µM (inactive)	> 100 µM (inactive)	> 100 µM (inactive)	> 100 µM (inactive)	> 100 µM (inactive)	> 100 µM (inactive)	> 100 µM (inactive)	> 100 µM (inactive)	> 100 µM (inactive)	> 100 µM (inactive)	> 100 µM (inactive)	> 100 µM (inactive)	> 100 µM (inactive)
CSc1cnc2ccccc2c1Sc1c[nH]c2ccccc2c1=O	15.3 µM (inactive)	12.4 µM (inactive)	5.51 µM (inactive)	7.87 µM (inactive)	9.48 µM (inactive)	12.2 µM (inactive)	8.39 µM (inactive)	3.72 µM (inactive)	14.4 µM (inactive)	6.75 µM (inactive)	1.93 µM (inactive)	11.1 µM (inactive)	20 µM (inactive)	14 µM (inactive)	11.3 µM (inactive)			
